Laboratory results: PubChem BioAssay (NCI)
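A five-concentration, 48-hour dose response in 96-well plates underlies each endpoint, interpolated linearly between surrounding concentrations. GI50 marks 50% less growth. The concentration for full growth arrest is given as TGI.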

Legend:
Experiment in all cases: inhibition of tumour cell growth, NCI panel, 48 h
786-0 renal = tested on: 786-0 renal
A498 renal = tested on: A498 renal
A549 NSCLC = tested on: A549 NSCLC
ACHN renal = tested on: ACHN renal
BT-549 breast = tested on: BT-549 breast
CAKI-1 renal = tested on: CAKI-1 renal
COLO 205 colon = tested on: COLO 205 colon
DU-145 prostate = tested on: DU-145 prostate
EKVX NSCLC = tested on: EKVX NSCLC
HCC-2998 colon = tested on: HCC-2998 colon
HCT-116 colon = tested on: HCT-116 colon
HCT-15 colon = tested on: HCT-15 colon
HL-60(TB) leukemia = tested on: HL-60(TB) leukemia
HOP-62 NSCLC = tested on: HOP-62 NSCLC
HOP-92 NSCLC = tested on: HOP-92 NSCLC
HS 578T breast = tested on: HS 578T breast
HT29 colon = tested on: HT29 colon
IGROV1 ovarian = tested on: IGROV1 ovarian
K-562 leukemia = tested on: K-562 leukemia
KM12 colon = tested on: KM12 colon
LOX IMVI melanoma = tested on: LOX IMVI melanoma
M14 melanoma = tested on: M14 melanoma
MALME-3M melanoma = tested on: MALME-3M melanoma
MCF7 breast = tested on: MCF7 breast
MDA-MB-231 breast = tested on: MDA-MB-231 breast
MDA-MB-435 = tested on: MDA-MB-435
MDA-MB-468 breast = tested on: MDA-MB-468 breast
MOLT-4 leukemia = tested on: MOLT-4 leukemia
NCI-H226 lung = tested on: NCI-H226 lung
NCI-H23 lung = tested on: NCI-H23 lung
NCI-H460 lung = tested on: NCI-H460 lung
NCI-H522 lung = tested on: NCI-H522 lung
OVCAR-3 ovarian = tested on: OVCAR-3 ovarian
OVCAR-4 ovarian = tested on: OVCAR-4 ovarian
OVCAR-5 ovarian = tested on: OVCAR-5 ovarian
OVCAR-8 ovarian = tested on: OVCAR-8 ovarian
PC-3 prostate = tested on: PC-3 prostate
RXF 393 renal = tested on: RXF 393 renal
SF-268 CNS = tested on: SF-268 CNS
SF-295 CNS = tested on: SF-295 CNS
SF-539 CNS = tested on: SF-539 CNS
SK-MEL-2 melanoma = tested on: SK-MEL-2 melanoma
SK-MEL-28 melanoma = tested on: SK-MEL-28 melanoma
SK-MEL-5 melanoma = tested on: SK-MEL-5 melanoma
SK-OV-3 ovarian = tested on: SK-OV-3 ovarian
SN12C renal = tested on: SN12C renal
SNB-19 CNS = tested on: SNB-19 CNS
SNB-75 CNS = tested on: SNB-75 CNS
SR leukemia = tested on: SR leukemia
SW-620 colon = tested on: SW-620 colon
T-47D breast = tested on: T-47D breast
TK-10 renal = tested on: TK-10 renal
U251 CNS = tested on: U251 CNS
UACC-257 melanoma = tested on: UACC-257 melanoma
UACC-62 melanoma = tested on: UACC-62 melanoma
UO-31 renal = tested on: UO-31 renal

## O=C(/C=C/c1ccccc1)c1nc2ccccc2n1Cc1ccc(Br)cc1
786-0 renal
  GI50: 1.79 µM
  TGI: 3.34 µM
A498 renal
  GI50: 15.1 µM
  TGI: 28.4 µM
A549 NSCLC
  GI50: 3.51 µM
  TGI: 20.4 µM
ACHN renal
  GI50: 3.12 µM
  TGI: 10.1 µM
BT-549 breast
  GI50: 1.93 µM
  TGI: 4.7 µM
CAKI-1 renal
  GI50: 2.6 µM
  TGI: 11.2 µM
COLO 205 colon
  GI50: 2.36 µM
  TGI: 5 µM
DU-145 prostate
  GI50: 3.96 µM
  TGI: 18.6 µM
EKVX NSCLC
  GI50: 2.75 µM
  TGI: 8.44 µM
HCC-2998 colon
  GI50: 1.83 µM
  TGI: 3.42 µM
HCT-116 colon
  GI50: 1.71 µM
  TGI: 3.16 µM
HCT-15 colon
  GI50: 1.67 µM
  TGI: 3.47 µM
HL-60(TB) leukemia
  GI50: 1.61 µM
  TGI: 4.17 µM
HOP-62 NSCLC
  GI50: 2.21 µM
  TGI: 5.09 µM
HOP-92 NSCLC
  GI50: 1.92 µM
  TGI: 8.58 µM
HS 578T breast
  GI50: 4.22 µM
  TGI: 53.4 µM
HT29 colon
  GI50: 2.91 µM
  TGI: 7.34 µM
IGROV1 ovarian
  GI50: 2.32 µM
  TGI: 5.53 µM
K-562 leukemia
  GI50: 2.39 µM
  TGI: 6.6 µM
KM12 colon
  GI50: 2.95 µM
  TGI: 10.2 µM
LOX IMVI melanoma
  GI50: 1.65 µM
  TGI: 3.12 µM
M14 melanoma
  GI50: 2.16 µM
  TGI: 4.77 µM
MALME-3M melanoma
  GI50: 1.94 µM
  TGI: 4.63 µM
MCF7 breast
  GI50: 1.78 µM
  TGI: 6.26 µM
MDA-MB-231 breast
  GI50: 2.26 µM
  TGI: 5.16 µM
MDA-MB-435
  GI50: 2.25 µM
  TGI: 5.95 µM
MDA-MB-468 breast
  GI50: 1.89 µM
  TGI: 3.81 µM
MOLT-4 leukemia
  GI50: 1.84 µM
  TGI: 5.47 µM
NCI-H226 lung
  GI50: 3.8 µM
  TGI: 15.9 µM
NCI-H23 lung
  GI50: 2.01 µM
  TGI: 4.29 µM
NCI-H460 lung
  GI50: 1.8 µM
  TGI: 3.64 µM
NCI-H522 lung
  GI50: 1.84 µM
  TGI: 4.04 µM
OVCAR-3 ovarian
  GI50: 2.28 µM
  TGI: 5.56 µM
OVCAR-4 ovarian
  GI50: 8.7 µM
  TGI: 81.5 µM
OVCAR-5 ovarian
  GI50: 2.2 µM
  TGI: 4.54 µM
OVCAR-8 ovarian
  GI50: 2.84 µM
  TGI: 8.8 µM
PC-3 prostate
  GI50: 3.14 µM
  TGI: 9.31 µM
RXF 393 renal
  GI50: 1.51 µM
  TGI: 2.84 µM
SF-268 CNS
  GI50: 6.92 µM
  TGI: > 100 µM
SF-295 CNS
  GI50: 2.22 µM
  TGI: 5.25 µM
SF-539 CNS
  GI50: 1.86 µM
  TGI: 3.54 µM
SK-MEL-2 melanoma
  GI50: 2.23 µM
  TGI: 5.08 µM
SK-MEL-28 melanoma
  GI50: 1.84 µM
  TGI: 3.74 µM
SK-MEL-5 melanoma
  GI50: 2.44 µM
  TGI: 6.95 µM
SK-OV-3 ovarian
  GI50: 13.2 µM
  TGI: 57.6 µM
SN12C renal
  GI50: 3.46 µM
  TGI: 12.4 µM
SNB-19 CNS
  GI50: 1.81 µM
  TGI: 3.64 µM
SNB-75 CNS
  GI50: 3.83 µM
  TGI: 22.1 µM
SR leukemia
  GI50: 1.97 µM
  TGI: 6.01 µM
SW-620 colon
  GI50: 2 µM
  TGI: 4.09 µM
T-47D breast
  GI50: 2.36 µM
  TGI: 10.2 µM
TK-10 renal
  GI50: 2.57 µM
  TGI: 7.63 µM
U251 CNS
  GI50: 1.65 µM
  TGI: 3.2 µM
UACC-257 melanoma
  GI50: 3.12 µM
  TGI: 11.9 µM
UACC-62 melanoma
  GI50: 1.85 µM
  TGI: 4.68 µM
UO-31 renal
  GI50: 1.46 µM
  TGI: 2.97 µM
